The values that follow come from patent US10844351B2, “Method for producing otic progenitors” (priority 2015, dated 2020).

Each structure is given as a SMILES string.

Common to all, as to assay type: cell-based, human
Data set [1] deals with H14S9 hES cell line. In words: QPCR of ectoderm, mesoderm and endoderm lineage marker gene expression after 12 day otic differentiation. The method, then: With the H14S9 hES cell line, 12 day otic differentiation experiments were carried out in control DFNB, FGF, or FGF with 10 μM IWR-1-endo supplemented medium. Gene expression of the three germ layer lineages relative to the baseline DFNB condition were quantified by QPCR. Two gene markers for each germ layer were investigated; PAX6 and NEST/N (ectoderm), BRACHYURY and MEOX1 (mesoderm), and AFP and GATA6 (endoderm) (FIG. 2).
Following a lost-of function/gain-of function paradigm, an experiment was done to determine the effect of activating canonical Wnt signalling throughout the 12 days of otic differentiation. The small molecule compound BIO (6-bromoindirubin-3′-oxime, Tocris) is a potent inhibitor of GSK-3β kinase, a component of the β-catenin degradation complex. Inhibition of GSK-3β kinase activity disrupts the proteolytic breakdown of β-catenin and so Wnt activity is sustained (Meijer et al., 2003). BIO is well established in the literature and has been used to investigate survival and proliferation of hES cells and also lineage differentiation studies (Dravid et al., 2005) (Tseng et al., 2006). BIO was tested at a concentration of 2 μM (as recommended in the literature). […] In contrast to inhibiting canonical Wnt signalling throughout the 12 day protocol, activating canonical Wnt signalling throughout appears to downregulate gene expression of the otic and ectoderm markers, with upregulation of markers of mesoderm and endoderm.

The test system of data set [2] is H14S9 hES cell line. The data set can be described thus: Cell death in differentiating cultures. Conditions: 20 μM IWR-1-endo in FGF medium. The method, then: The effect of the Wnt inhibitors was initially explored in the backdrop of a known differentiation protocol, which includes FGF 3 and FGF 10 supplementation from the outset. Experiments were carried out to determine the effect of canonical Wnt inhibition on the differentiation of otic progenitors in FGF medium (standard concentration of 50 ng/ml for each FGF 3 and FGF 10) and obtain an optimal working concentration. IWR-1-endo was present from day 0 of differentiation (day 0 refers to the initial seeding of the hES cells into differentiation conditions) and were maintained throughout the 12 day protocol. At the end of the differentiation protocol, RNA was extracted and PAX2, PAX8 and FOXG1 gene expression was quantified by real time PCR (QPCR) using SYBR Green (Sigma Aldrich). Delta Cts were calculated against the large ribosomal protein RPLPO housekeeping gene, and Delta Ct values were compared against the levels expressed by cells differentiated in the control DFNB medium (Livak and Schmittgen, 2001). FIG. 1 compares the dose responses of IWR-1-endo and the effect on the gene expression of PAX2, PAX8 and FOXG1 in the H14S9 hES cell line. Dimethyl sulfoxide (DMSO) was the vehicle for all small molecule compounds. A vehicle-only control was added to FGF medium to ascertain the effects of DMSO. […]

Data set [3] relates to H14S9 hES cell line. The data set can be described thus: QPCR of otic marker gene expression after 12 day otic differentiation protocol. As for the experimental part: The effect of the Wnt inhibitors was initially explored in the backdrop of a known differentiation protocol, which includes FGF 3 and FGF 10 supplementation from the outset. Experiments were carried out to determine the effect of canonical Wnt inhibition on the differentiation of otic progenitors in FGF medium (standard concentration of 50 ng/ml for each FGF 3 and FGF 10) and obtain an optimal working concentration. IWR-1-endo was present from day 0 of differentiation (day 0 refers to the initial seeding of the hES cells into differentiation conditions) and were maintained throughout the 12 day protocol. At the end of the differentiation protocol, RNA was extracted and PAX2, PAX8 and FOXG1 gene expression was quantified by real time PCR (QPCR) using SYBR Green (Sigma Aldrich). Delta Cts were calculated against the large ribosomal protein RPLPO housekeeping gene, and Delta Ct values were compared against the levels expressed by cells differentiated in the control DFNB medium (Livak and Schmittgen, 2001). FIG. 1 compares the dose responses of IWR-1-endo and the effect on the gene expression of PAX2, PAX8 and FOXG1 in the H14S9 hES cell line. Dimethyl sulfoxide (DMSO) was the vehicle for all small molecule compounds. A vehicle-only control was added to FGF medium to ascertain the effects of DMSO. […] This provided confidence that the Wnt inhibitor compound was exerting an effect on gene expression, and not the carrier vehicle. […] The optimal concentration of IWR-1-endo agrees with published findings in human stem cell studies (Chen et al., 2009, Hudson et al., 2012).
Further investigating the timing of canonical Wnt inhibition it was important to address whether inhibition was required throughout the whole 12-day differentiation protocol. Experiments were set up to inhibit canonical Wnt signalling for different lengths of time. In combination with FGF medium, Wnt inhibition took place from day 0 to day 4, day 0 to day 6, or day 0 to day 8. […] At the end of day 12, gene expression of PAX2, PAX8 and FOXG1 was quantified relative to the DFNB baseline condition, and is shown in FIG. 6. […]

Where [4] appears, read: 2 μM BIO in FGF medium throughout 12 days, one experiment.
Setting [5] is: FGF medium with 10 μM IWR-1-endo, 12 days, compared to FGF condition.

For `O=C1Nc2cc(Br)ccc2/C1=C1/Nc2ccccc2/C1=N\O` [BIO, 6-bromoindirubin-3′-oxime], in the data set with H14S9 hES cell line [1] (setting [4]), the “gene expression of markers of mesoderm and endoderm” value was “upregulation”; the “gene expression of the otic and ectoderm markers” value is recorded as “downregulate”.
Regarding `O=C(Nc1cccc2cccnc12)c1ccc(N2C(=O)[C@@H]3[C@H](C2=O)[C@@H]2C=C[C@H]3C2)cc1` [IWR-1-endo], the “cell death in the cultures” value in the data set on H14S9 hES cell line [2] is given as “very high levels of cell death”. In addition, the “gene expression of PAX2, PAX8 and FOXG1” value in the data set on H14S9 hES cell line [3] (10 μM IWR-1-endo in FGF medium (50 ng/ml FGF 3 and FGF 10), day 0 to day 12, relative to DFNB) was “more robust and reproducible upregulation”. Besides, the “gene expression of PAX2, PAX8 or FOXG1” value in the data set on H14S9 hES cell line [3] (IWR-1-endo day 0 to day 4 or day 0 to day 6, then FGF medium only until day 12, compared to FGF medium alone) is “did not significantly alter”. In the data set on H14S9 hES cell line [3] (canonical Wnt inhibition with IWR-1-endo day 0 to 8 or day 0 to 12, compared to standard FGF medium), the “gene expression of the otic markers” value is given as “Significant upregulation”. For the same compound, in the data set with H14S9 hES cell line [1] (setting [5]), the “ectodermal differentiation (PAX6, NESTIN gene expression)” value is “enhanced further over the FGF condition”; the “gene expression of mesoderm and endoderm markers” value is reported as “significantly reduced compared to the FGF condition”. For the same compound, the AFP gene expression result in the data set with H14S9 hES cell line [1] (FGF medium with IWR-1-endo, 12 days, compared to FGF condition) was “significant downregulation”.
